Data taken from patent US20040235922A1, “Compositions and methods for inducing adipose tissue cell death” (priority 2003, published 2004).
“Also recorded” adds a separate entry of the source.

What was measured:
[1] = Body composition analysis by PIXImus densitometry in WT and GDF-8 KO mice (Example 2); format: in vivo; settings: 200 ppm in diet, 21 days
mouse adipocytes = settings: in vitro; cited from earlier work
[2] = tested on: Epi/Par fat pads (white adipose tissue); experiment: Adipose tissue apoptosis assay, % DNA fragmentation (Example 1); format: in vivo, mice; settings: 21 days
Procedure: Animals: Five week old male (n=20) and female (n=20) ICR mice (Harlan Research Laboratories, Indianapolis, Ind.) were allowed to acclimate for one week prior to the experiment start date. Animals were housed singly in suspended wire cages and were provided ground rodent chow (ProLab® RMH 2500; Purina Mills, St. Louis, Mo.) and water ad libitum. Ambient room temperature was maintained and the light/dark cycle was 0600/1800 hours, respectively. Animals were cared for in accordance with the Guide for the Care and Use of Laboratory Animals (Institute of Laboratory Animal Resources Commission on Life Sciences National Research Council. Guide for the Care and Use of Laboratory Animals. National Academy of Sciences, 1996). Prior to the start of the study, animals were briefly anesthetized with isofluorane and an IPPT-200 transponder (programmable ID and temperature, BMDS, Seaford, Del.) was implanted subcutaneously between the scapulae.
Materials: Test articles included clenbuterol (Sigma Chemical Company, St. Louis, Mo., item # C5423) and ractopamine hydrochloride—Paylean® 9 (Elanco Animal Health, Indianapolis, Ind.). Clenbuterol is available as a pure product, and ractopamine is readily available as a type A medicated article. Paylean® 9 contains about 20 g ractopamine hydrochloride per kilogram in a ground corncob base. In order to achieve doses of 200 and 800 ppm it was necessary to add about […] of product per kilogram of diet. Control and clenbuterol diets were prepared with about 80 g of alphacel, which is a diluent used to mimic the effect of the corncob in the ractopamine product. The dose of clenbuterol used in this experiment was similar to those used in previous experiments with mice (Agbenyega E T, and Wareham A C. Effect of clenbuterol on skeletal muscle atrophy in mice induced by the glucocorticoid dexamethasone. Comp Biochem Physiol Comp Physiol 1992;102:141-145, Rothwell N. J., and Stock M J. Modification of body composition by clenbuterol in normal and dystrophic (mdx) mice. Biosci Rep 1985;5:755-760, Hyltander A, Svaninger G, and Lundholm K. The effect of clenbuterol on body composition in spontaneously eating tumour-bearing mice. Biosci Rep 1993;13:325-331, Hayes A, and Williams DA. Long-term clenbuterol administration alters the isometric contractile properties of skeletal muscle from normal and dystrophin-deficient mdx mice. Clin Exp Pharmacol Physiol 1994;21:757-765, Dupont-Versteegden EE. Exercise and clenbuterol as strategies to decrease the progression of muscular dystrophy in mdx mice. J Appl Physiol 1996;80:734-741).
DNA Isolation and Apoptosis Assay: Only the Epi and Par fat pads had sufficient tissue for the apoptosis assay. Apoptosis was assayed in two ways: DNA isolated from fat tissue was separated into two fractions: fragmented and genomic DNA. First, the fragmented DNA was run on an agarose gel in order to identify a ladder pattern of internucleosomal DNA degradation that is characteristic of apoptosis. Second, apoptosis was quantified as the ratio of fragmented- to total-DNA, multiplied by 100. Briefly, approximately 50 mg of the Epi or Par white adipose tissue was homogenized in lysis buffer (10 mM Tris-HCL, pH 8.0, 10 mM EDTA, pH 8.0; 0.5% Triton X-100) and centrifuged at 14,000× g for 15 min to separate fragmented DNA from genomic DNA. The supernatant, containing fragmented DNA, was extracted with phenol-chloroform-isoamyl alcohol (25:24:1), and the DNA was precipitated by adding polyacryl carrier (Molecular Research Center, Inc., Cincinnati, Ohio) and ethanol. Genomic (non-fragmented) DNA was extracted from the pellet with DNAzol and the polyacryl carrier. DNA in each fraction was quantified by the PicoGreen method (Molecular Probes, Inc., Eugene, Oreg.) and fluorescence was measured using a SpectroMax Gemini (Molecular Devices).
Statistical Analysis: Analysis of variance (SAS) was used to determine significance of treatment and gender effects. […]

[3] = WT and GDF-8 KO mice, Mean ± SEM

With `CC(C)(C)NCC(O)c1cc(Cl)c(N)c(Cl)c1` (stereo not shown) [Clenbuterol, clenbuterol] the “% Fat” value [1, 3] was 15.7 ± 1.0%, the “Bone Mineral Content” value [1, 3] was 0.52 ± 0.02 g and the “Bone Mineral Density” value [1, 3] was 0.06 ± 0.001 g. The Fat [1, 3] was 4.1 ± 0.2 g, the Lean [1, 3] was 22.7 ± 1.1 g and the “Effect on BMD, BMC, area, lean weight, fat weight, or fat %” value ([1]; main effects) was “no effect”. For the same molecule, the “Insulin binding to mouse adipocytes” value (mouse adipocytes) was “decreased”, the “Percent DNA fragmentation (apoptosis) in the Epi/Par fat pad compared to control” value ([2]; 200 ppm clenbuterol, 800 ppm ractopamine in diet, p<0.05, listed as clenbuterol) was “increased; also recorded: significant increase in apoptosis” and the “Adipose tissue apoptosis (% DNA fragmentation) in Epi/Par fat pads” value ([2]; 200 ppm in diet, mice, control 1.7±0.4%) was 5.2 ± 1.1%. The “DNA fragmentation in retroperitoneal or inguinal fat pads” value ([2]; diet, mice) was “Neither clenbuterol nor ractopamine treatments increased”.
